Test results taken from US20210024542A1 (Torcept Therapeutics, Inc., priority 2018, published 2021).

Tests used:
Type in all cases: cell-based, human
A388 = experiment: OncoPanel cell proliferation assay, A388
Procedure: (§1) Cells were seeded into 384-well plates and incubated in a humidified atmosphere of 5% CO2 at 37° C. Compounds were added the day following cell seeding. At the same time, a time zero untreated cell plate was generated. After a 3-day incubation period, cells were fixed and stained to allow fluorescence imaging of nuclei. Compounds (1 mM stock solutions) were serially diluted in half-log steps from the highest test concentration ([…]), and assayed over 10 concentrations with a maximum assay concentration of 0.1% DMSO. Automated fluorescence microscopy was carried out using a Molecular Devices ImageXpress Micro XL high-content imager, and images were collected with a 4× objective. 16-bit TIFF images were acquired and analyzed with MetaXpress 5.1.0.41 software.
(§2) Cell proliferation was measured by the fluorescence intensity of an incorporated nuclear dye. The output is referred to as the relative cell count, where the measured nuclear intensity is transformed to percent of control (POC) using the following formula: […]
(§3) Cellular response parameters were calculated using nonlinear regression to a sigmoidal single-site dose response model:
(§4) Where y is a response measured at concentration x, A and B are the lower and upper limits of the response, C is the concentration at the response midpoint (EC50), and D is the Hill Slope (Ref. 1).
(§5) GI50 is the concentration needed to reduce the observed growth by half (midway between the curve maximum and the time zero value). […] In rare instances, values <0 or >10 may be observed. […] Curve-fitting, calculations, and report generation was performed using a custom data reduction engine and MathIQ based software (AIM).

SW579 = experiment: OncoPanel cell proliferation assay, SW579; conditions: for Cell Count Activity Area: SW579, scale 0-10
Procedure: as §1, with “Cells were grown in RPMI 1640, 10% FBS, 2 mM L-alanyl-L-glutamine, 1 mM Na pyruvate, or a special medium. Cells” for “Cells”
as §2, §3, §4
EC50 is the test compound concentration at the curve inflection point or half the effective response (parameter C of the fitted curve solution). GI50 is the concentration needed to reduce the observed growth by half (midway between the curve maximum and the time zero value). “Cell Count Activity Area” is an estimate of the integrated area above the curve (Barretina, et al. The Cancer Cell Line Encyclopedia enables predictive modelling of anticancer drug sensitivity. Nature 483: 603-607). […] In rare instances, values <0 or >10 may be observed. […] Curve-fitting, calculations, and report generation was performed using a custom data reduction engine and MathIQ based software (AIM).

U2OS = experiment: OncoPanel cell proliferation assay, U2OS
Procedure: as §1, §2, §3, §4, §5

Row | EC50 (U2OS; Homo sapiens, 72 h, 3-day incubation, read-out: Cell Count EC50) [nM] | IC50 (U2OS; Homo sapiens, 72 h, 3-day incubation, read-out: Cell Count IC50) [nM] | IC50 (SW579; Homo sapiens, 72 h, SW579, 3-day incubation, read-out: Cell Count IC50) [nM] | Compound | Cell Count Activity Area (A388; A388, scale 0-10) | EC50 (SW579; Homo sapiens, 72 h, SW579, 3-day incubation, read-out: Cell Count EC50) [nM] | Cell Count Activity Area (SW579) | Cell Count Activity Area (U2OS; scale 0-10) | EC50 (A388; Homo sapiens, 72 h, A388, 3-day incubation, read-out: Cell Count EC50) [nM] | GI50 (A388; Homo sapiens, 72 h, A388, 3-day incubation, read-out: Cell Count GI50) [nM] | IC50 (A388; Homo sapiens, 72 h, A388, 3-day incubation, read-out: Cell Count IC50) [nM]
1 |  |  |  | CN[C@@H]1C[C@H]2O[C@@](C)([C@@H]1OC)n1c3ccccc3c3c4c(c5c6ccccc6n2c5c31)C(=O)NC4 [Staurosporine, reference compound] | 4.99 | 0.52 | 6.09 |  |  |  | 
2 | 0.65 | > 1000 | > 1000 | CO[C@H]1C[C@@H]2CC[C@@H](C)[C@@](O)(O2)C(=O)C(=O)N2CCCC[C@H]2C(=O)O[C@H]([C@H](C)C[C@@H]2CC[C@@H](O)[C@H](OC)C2)CC(=O)[C@H](C)/C=C(\C)[C@@H](O)[C@@H](OC)C(=O)[C@H](C)C[C@H](C)/C=C/C=C/C=C/1C [Rapamycin, reference compound] |  |  | 4.77 | 3.04 | > 1000 | > 1000 | > 1000
